Numbers after ± are expanded uncertainties.
Assays:
[1] = 298.15 K; 101.33 kPa; Liquid; Pycnometric method
[2] = excess molar enthalpy (molar enthalpy of mixing); xn = mol fraction of the nth substance listed; conditions: 298.15 K, 101 kPa, Liquid, Flow calorimetry

`CCCCO` [butan-1-ol] gave a mass density [1] of 805.71 ± 0.73 kg/m3.
For `CCCCCCCCCCO` [decan-1-ol], the mass density [1] was 826.31 ± 0.74 kg/m3.
In the case of `CCCCCCO` [hexan-1-ol], the mass density [1] is reported as 815.4 ± 0.78 kg/m3.
`C=CCCCCCC` [oct-1-ene] gave a mass density [1] of 710.88 ± 0.64 kg/m3.
`C=CCCCCCC` [oct-1-ene] + CCCCCCCCCCO showed an excess molar enthalpy ([2]; x2 = 0.097) of 0.269 ± 0.014 kJ/mol, an excess molar enthalpy ([2]; x2 = 0.195) of 0.366 ± 0.019 kJ/mol and an excess molar enthalpy ([2]; x2 = 0.293) of 0.4 ± 0.02 kJ/mol. For the same molecule, the excess molar enthalpy ([2]; x2 = 0.406) was 0.386 ± 0.02 kJ/mol, the excess molar enthalpy ([2]; x2 = 0.504) was 0.349 ± 0.018 kJ/mol and the excess molar enthalpy ([2]; x2 = 0.602) was 0.301 ± 0.015 kJ/mol. The excess molar enthalpy ([2]; x2 = 0.7) was 0.242 ± 0.012 kJ/mol, the excess molar enthalpy ([2]; x2 = 0.8) was 0.166 ± 0.0085 kJ/mol and the excess molar enthalpy ([2]; x2 = 0.902) was 0.0761 ± 0.004 kJ/mol.
For `C=CCCCCCC` [oct-1-ene] + CCCCCCCCO, the excess molar enthalpy ([2]; x2 = 0.097) was 0.292 ± 0.015 kJ/mol, the excess molar enthalpy ([2]; x2 = 0.194) was 0.391 ± 0.02 kJ/mol and the excess molar enthalpy ([2]; x2 = 0.292) was 0.435 ± 0.022 kJ/mol. For the same molecule, the excess molar enthalpy ([2]; x2 = 0.391) was 0.432 ± 0.022 kJ/mol, the excess molar enthalpy ([2]; x2 = 0.49) was 0.394 ± 0.02 kJ/mol and the excess molar enthalpy ([2]; x2 = 0.6) was 0.341 ± 0.017 kJ/mol. It also gave an excess molar enthalpy ([2]; x2 = 0.699) of 0.264 ± 0.013 kJ/mol, an excess molar enthalpy ([2]; x2 = 0.799) of 0.179 ± 0.0092 kJ/mol and an excess molar enthalpy ([2]; x2 = 0.899) of 0.0788 ± 0.0041 kJ/mol.
In the case of `C=CCCCCCC` [oct-1-ene] + CCCCCCO, the excess molar enthalpy ([2]; x2 = 0.096) is reported as 0.335 ± 0.017 kJ/mol, the excess molar enthalpy ([2]; x2 = 0.192) is reported as 0.44 ± 0.022 kJ/mol and the excess molar enthalpy ([2]; x2 = 0.307) is reported as 0.502 ± 0.025 kJ/mol. It also gave an excess molar enthalpy ([2]; x2 = 0.403) of 0.492 ± 0.025 kJ/mol, an excess molar enthalpy ([2]; x2 = 0.5) of 0.444 ± 0.022 kJ/mol and an excess molar enthalpy ([2]; x2 = 0.598) of 0.381 ± 0.019 kJ/mol. For the same molecule, the excess molar enthalpy ([2]; x2 = 0.697) was 0.303 ± 0.015 kJ/mol, the excess molar enthalpy ([2]; x2 = 0.802) was 0.206 ± 0.011 kJ/mol and the excess molar enthalpy ([2]; x2 = 0.9) was 0.0973 ± 0.0051 kJ/mol.
Work on `C=CCCCCCC` [oct-1-ene] + CCCCO yielded an excess molar enthalpy ([2]; x2 = 0.095) of 0.397 ± 0.02 kJ/mol, an excess molar enthalpy ([2]; x2 = 0.209) of 0.586 ± 0.03 kJ/mol and an excess molar enthalpy ([2]; x2 = 0.304) of 0.645 ± 0.033 kJ/mol. It also gave an excess molar enthalpy ([2]; x2 = 0.4) of 0.625 ± 0.032 kJ/mol, an excess molar enthalpy ([2]; x2 = 0.497) of 0.553 ± 0.028 kJ/mol and an excess molar enthalpy ([2]; x2 = 0.595) of 0.457 ± 0.023 kJ/mol. It also gave an excess molar enthalpy ([2]; x2 = 0.702) of 0.348 ± 0.018 kJ/mol, an excess molar enthalpy ([2]; x2 = 0.8) of 0.236 ± 0.012 kJ/mol and an excess molar enthalpy ([2]; x2 = 0.899) of 0.119 ± 0.0062 kJ/mol.
Work on `C=CCCCCCC` [oct-1-ene] + CCCO yielded an excess molar enthalpy ([2]; x2 = 0.094) of 0.436 ± 0.022 kJ/mol, an excess molar enthalpy ([2]; x2 = 0.189) of 0.646 ± 0.033 kJ/mol and an excess molar enthalpy ([2]; x2 = 0.302) of 0.765 ± 0.039 kJ/mol. For the same molecule, the excess molar enthalpy ([2]; x2 = 0.398) was 0.751 ± 0.038 kJ/mol, the excess molar enthalpy ([2]; x2 = 0.495) was 0.681 ± 0.035 kJ/mol and the excess molar enthalpy ([2]; x2 = 0.593) was 0.597 ± 0.03 kJ/mol. It also gave an excess molar enthalpy ([2]; x2 = 0.693) of 0.488 ± 0.025 kJ/mol, an excess molar enthalpy ([2]; x2 = 0.799) of 0.341 ± 0.017 kJ/mol and an excess molar enthalpy ([2]; x2 = 0.899) of 0.182 ± 0.0093 kJ/mol.
`CCCCCCCCO` [octan-1-ol] showed a mass density [1] of 822.47 ± 0.83 kg/m3.
With `CCCO` [propan-1-ol] the mass density [1] was 799.65 ± 0.72 kg/m3.

From the NIST ThermoML archive (doi:10.1016/j.fluid.2007.07.063)
